In PubChem BioAssay (NCI) one finds TGI data, which are given here for 13 compounds.

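Tested at 5 concentrations; 48 h exposure; 96-well plates; endpoints linearly interpolated, else capped at highest concentration. Definition used: TGI = concentration required for complete inhibition of growth.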

Some test systems named below: SN12C renal; EKVX NSCLC; ACHN renal; 786-0 renal; NCI/ADR-RES ovarian; SR leukemia; CCRF-CEM leukemia; HOP-62 NSCLC; SNB-19 CNS; PC-3 prostate; K-562 leukemia.
Assay in all cases: NCI-60 cell line screen, 48 h

As to `Cn1c2ccc3cc2c(=S)c2cc(ccc21)OCCOCCOCCOCCOCCOCCO3`, the TGI with SN12C renal, in the test on EKVX NSCLC, with ACHN renal, in the test with 786-0 renal, with NCI/ADR-RES ovarian and in the test on SR leukemia was above 10 µM in each case. Besides, the TGI with CCRF-CEM leukemia, with HOP-62 NSCLC, with SNB-19 CNS, in the test on PC-3 prostate and with K-562 leukemia was above 10 µM each time.
On to `Cc1cc(-c2nc3ccc(F)cc3s2)ccc1NC(=O)[C@H](C)N`, for which the TGI was 28.7 µM with SN12C renal; 23 µM in the test on EKVX NSCLC; 22.9 µM with ACHN renal; 16.9 µM in the test on 786-0 renal; 28.5 µM with NCI/ADR-RES ovarian; 5.65 µM with SR leukemia. In addition, the TGI was 6.23 µM in the test on CCRF-CEM leukemia; 24.5 µM in the test on HOP-62 NSCLC; 29.6 µM in the test with SNB-19 CNS; 24.3 µM with PC-3 prostate; 4.7 µM with K-562 leukemia.
Regarding `Cc1ccccc1OC(C)C(=O)NN1C(=O)CSC1c1ccccc1` (centres undefined), the TGI in the test with SN12C renal was above 100 µM; in the test on EKVX NSCLC, above 100 µM; in the test with ACHN renal, above 100 µM; in the test with 786-0 renal, above 100 µM; with NCI/ADR-RES ovarian, above 100 µM; in the test with SR leukemia it was 48.8 µM. Moreover, the TGI in the test on HOP-62 NSCLC, in the test on SNB-19 CNS, with PC-3 prostate and in the test with K-562 leukemia was above 100 µM each time.
Take `Nc1c(-c2ccc(Cl)c(Cl)c2)c2ccc([N+](=O)[O-])cc2c(=O)n1-c1nc2ccccc2s1`: the TGI in the test with SN12C renal is 12.3 µM; with EKVX NSCLC, 46.8 µM; in the test on ACHN renal, 20.6 µM; in the test on 786-0 renal, 19.6 µM; in the test with NCI/ADR-RES ovarian, 6.8 µM; in the test on SR leukemia, above 100 µM. Also, the TGI was 0.525 µM in the test on CCRF-CEM leukemia; above 38.6 µM with HOP-62 NSCLC; above 49.4 µM in the test on SNB-19 CNS; above 100 µM in the test on PC-3 prostate; above 100 µM in the test on K-562 leukemia.
For `Oc1ccccc1CNCc1nc2ccccc2[nH]1`, the TGI with SN12C renal is above 100 µM; with EKVX NSCLC, above 100 µM; in the test on ACHN renal, 57.6 µM; in the test on 786-0 renal it was above 100 µM; in the test with NCI/ADR-RES ovarian, 61.5 µM; with SR leukemia, above 100 µM. Further, the TGI in the test on CCRF-CEM leukemia, in the test on HOP-62 NSCLC, with SNB-19 CNS, in the test with PC-3 prostate and in the test on K-562 leukemia was above 100 µM each time.
On to `C=C1CCN2CC[C@@H](OC(=O)/C(C)=C\C)[C@@H]12`, for which the TGI with SN12C renal, in the test on EKVX NSCLC, with ACHN renal, in the test on 786-0 renal, in the test with NCI/ADR-RES ovarian and in the test with SR leukemia was above 100 µM each time. In addition, the TGI with CCRF-CEM leukemia, in the test with HOP-62 NSCLC, in the test with SNB-19 CNS, with PC-3 prostate and in the test on K-562 leukemia was above 100 µM throughout.
With `COc1ccc(-n2c(C)nc3ccc(NC(=S)Nc4ccccc4)cc3c2=O)cc1`, the TGI in the test on SN12C renal, in the test with EKVX NSCLC, in the test with ACHN renal, in the test on 786-0 renal, with NCI/ADR-RES ovarian and with SR leukemia was above 100 µM throughout. Also, the TGI in the test on HOP-62 NSCLC, in the test on SNB-19 CNS, in the test on PC-3 prostate and in the test with K-562 leukemia was above 100 µM throughout.
Consider `CC(=O)Nn1c(=S)[nH]c2ccccc21`, for which the TGI with SN12C renal, with EKVX NSCLC, in the test on ACHN renal, in the test with 786-0 renal, in the test with NCI/ADR-RES ovarian and with SR leukemia was above 100 µM in each case. The TGI with CCRF-CEM leukemia, in the test on HOP-62 NSCLC, in the test with SNB-19 CNS, in the test with PC-3 prostate and with K-562 leukemia was above 100 µM each time.
On to `COc1cccc(Nc2nc(-c3cccs3)nc3cc(OC)c(OC)cc23)c1`, for which the TGI was 53.8 µM with SN12C renal; above 100 µM in the test with EKVX NSCLC; 50.3 µM with ACHN renal; 46 µM in the test on 786-0 renal; 63.8 µM in the test on NCI/ADR-RES ovarian; 76.9 µM in the test with SR leukemia. Moreover, the TGI is 62.7 µM in the test with HOP-62 NSCLC, above 100 µM in the test on SNB-19 CNS, 92.7 µM in the test with PC-3 prostate and above 100 µM in the test on K-562 leukemia.
For `CN(C)CCNS(=O)(=O)c1ccc(N)cc1`, the TGI with SN12C renal, in the test with EKVX NSCLC, in the test with ACHN renal, in the test with 786-0 renal, with NCI/ADR-RES ovarian and in the test with SR leukemia was above 100 µM throughout. Also, the TGI was above 100 µM in the test on CCRF-CEM leukemia; 32.4 µM with HOP-62 NSCLC; above 100 µM in the test with SNB-19 CNS; 34 µM in the test on PC-3 prostate; above 100 µM with K-562 leukemia.
In the case of `Oc1ccc(Cc2cc(Cc3ccc(O)cc3)cc(Cc3ccc(O)cc3)c2)cc1`, the TGI in the test on SN12C renal, with EKVX NSCLC, in the test with ACHN renal, in the test on 786-0 renal, in the test with NCI/ADR-RES ovarian and in the test with SR leukemia was above 50 µM in each case. Moreover, the TGI with HOP-62 NSCLC, in the test on SNB-19 CNS, in the test on PC-3 prostate and in the test on K-562 leukemia was above 50 µM each time.
For `CC(=O)Oc1cccc2c1C(=O)CCCC2`, the TGI in the test on SN12C renal, with EKVX NSCLC, in the test with ACHN renal, in the test on 786-0 renal, with NCI/ADR-RES ovarian and in the test on SR leukemia was above 100 µM each time. Also, the TGI in the test with CCRF-CEM leukemia, in the test on HOP-62 NSCLC, in the test with SNB-19 CNS, in the test with PC-3 prostate and in the test on K-562 leukemia was above 100 µM each time.
Turning to `Nc1nccc(-c2c[nH]c3cc(Br)ccc23)n1`, the TGI was 49.8 µM in the test on SN12C renal; 9.15 µM in the test with EKVX NSCLC; 66 µM with ACHN renal; 46.9 µM with 786-0 renal; above 100 µM in the test on NCI/ADR-RES ovarian; 46.7 µM in the test on SR leukemia. For the same compound, the TGI in the test with CCRF-CEM leukemia was above 100 µM; with HOP-62 NSCLC, above 100 µM; with SNB-19 CNS, 47.5 µM; in the test with PC-3 prostate, above 100 µM; in the test with K-562 leukemia, above 100 µM.
